This is an account of results in patent US12084522B2, “Peptides, combination of peptides, and cell based medicaments for use in immunotherapy against urinary bladder cancer and other cancers” (Immatics Biotechnologies GmbH, priority 2016, dated 2024).

Assay [1] has as its system CD8+ T cells from healthy HLA-A*02 donors. As to the kind of experiment: In vitro immunogenicity: priming of CD8+ T cells with aAPCs loaded with peptide/MHC complexes and anti-CD28, pMHC multimer readout. Type of assay: cell-based, human. As to conditions: for Wells (in vitro immunogenicity, positive wells): HLA class I peptides, Table 10A; for Wells positive [%]: HLA-A*02 restricted peptides, positive wells among evaluable, Table 10B. From the text: In order to obtain information regarding the immunogenicity of the TUMAPs of the present invention, the inventors performed investigations using an in vitro T-cell priming assay based on repeated stimulations of CD8+ T cells with artificial antigen presenting cells (aAPCs) loaded with peptide/MHC complexes and anti-CD28 antibody.
In order to perform in vitro stimulations by artificial antigen presenting cells loaded with peptide-MHC complex (pMHC) and anti-CD28 antibody, the inventors first isolated CD8+ T cells from fresh HLA-A*02 leukapheresis products via positive selection using CD8 microbeads (Miltenyi Biotec, Bergisch-Gladbach, Germany) of healthy donors obtained from the University clinics Mannheim, Germany, after informed consent.
PBMCs and isolated CD8+ lymphocytes were incubated in T-cell medium (TCM) until use consisting of RPMI-Glutamax (Invitrogen, Karlsruhe, Germany) supplemented with 10% heat inactivated human AB serum (PAN-Biotech, Aidenbach, Germany), 100 U/ml Penicillin/100 μg/ml Streptomycin (Cambrex, Cologne, Germany), 1 mM sodium pyruvate (CC Pro, Oberdorla, Germany), 20 μg/ml Gentamycin (Cambrex). 2.5 ng/ml IL-7 (PromoCell, Heidelberg, Germany) and 10 U/ml IL-2 (Novartis Pharma, Nürnberg, Germany) were also added to the TCM at this step.
Generation of pMHC/anti-CD28 coated beads, T-cell stimulations and readout was performed in a highly defined in vitro system using four different pMHC molecules per stimulation condition and 8 different pMHC molecules per readout condition.
The purified co-stimulatory mouse IgG2a anti human CD28 Ab 9.3 (Jung et al., 1987) was chemically biotinylated using Sulfo-N-hydroxysuccinimidobiotin as recommended by the manufacturer (Perbio, Bonn, Germany). Beads used were 5.6 μm diameter streptavidin coated polystyrene particles (Bangs Laboratories, Illinois, USA).
800.000 beads/200 μl were coated in 96-well plates in the presence of 4×12.5 ng different biotin-pMHC, washed and 600 ng biotin anti-CD28 were added subsequently in a volume of 200 μl. Stimulations were initiated in 96-well plates by co-incubating 1×10^6 CD8+ T cells with 2×10^5 washed coated beads in 200 μl TCM supplemented with 5 ng/ml IL-12 (PromoCell) for 3 days at 37° C. Half of the medium was then exchanged by fresh TCM supplemented with 80 U/ml IL-2 and incubating was continued for 4 days at 37° C. This stimulation cycle was performed for a total of three times. For the pMHC multimer readout using 8 different pMHC molecules per condition, a two-dimensional combinatorial coding approach was used as previously described (Andersen et al., 2012) with minor modifications encompassing coupling to 5 different fluorochromes. Finally, multimeric analyses were performed by staining the cells with Live/dead near IR dye (Invitrogen, Karlsruhe, Germany), CD8-FITC antibody clone SK1 (BD, Heidelberg, Germany) and fluorescent pMHC multimers. For analysis, a BD LSRII SORP cytometer equipped with appropriate lasers and filters was used. Peptide specific cells were calculated as percentage of total CD8+ cells. Evaluation of multimeric analysis was done using the FlowJo software (Tree Star, Oregon, USA). In vitro priming of specific multimer+CD8+ lymphocytes was detected by comparing to negative control stimulations.

Another assay concerns the target HLA-A*02:01 (Homo sapiens, UniProt P04439, D140Y/D185E/D98H/E176V/E277Q/G131W/G231S/I119V/I121R/I166T/I218V/L300P/L318F/N151K/N90K/P208A/P217A/Q86G/Q94H/R138H/R169H/T345S). Kind of assay: MHC binding assay (UV-ligand exchange, β2m ELISA, peptide exchange yield). As to conditions: binding to HLA-A*02:01 ranged by peptide exchange yield (UV-ligand exchange, β2m ELISA). From the text: Candidate peptides for T cell based therapies according to the present invention were further tested for their MHC binding capacity (affinity). The individual peptide-MHC complexes were produced by UV-ligand exchange, where a UV-sensitive peptide is cleaved upon UV-irradiation, and exchanged with the peptide of interest as analyzed. Only peptide candidates that can effectively bind and stabilize the peptide-receptive MHC molecules prevent dissociation of the MHC complexes. To determine the yield of the exchange reaction, an ELISA was performed based on the detection of the light chain (β2 m) of stabilized MHC complexes. The assay was performed as generally described in Rodenko et al. (Rodenko et al., 2006).
96 well MAXISorp plates (NUNC) were coated over night with 2 μg/ml streptavidin in PBS at room temperature, washed 4× and blocked forth at 37° C. in 2% BSA containing blocking buffer. Refolded HLA-A*02:01/MLA-001 monomers served as standards, covering the range of 15-500 ng/ml. Peptide-MHC monomers of the UV-exchange reaction were diluted 100 fold in blocking buffer. Samples were incubated for 1 h at 37° C., washed four times, incubated with 2 ug/ml HRP conjugated anti-β2 m for 1 h at 37° C., washed again and detected with TMB solution that is stopped with […]. Absorption was measured at 450 nm. Candidate peptides that show a high exchange yield (preferably higher than 50%, most preferred higher than 75%) are generally preferred for a generation and production of antibodies or fragments thereof, and/or T cell receptors or fragments thereof, as they show sufficient avidity to the MHC molecules and prevent dissociation of the MHC complexes.

In the case of “205 (KIVDFSYSV; listed as Homo sapiens) [compound 205]”, the “Wells (in vitro immunogenicity, positive wells)” value in assay [1] is “++ (20%-49% = ++)”.

Regarding “164 (ALADLTGTVV; listed as Homo sapiens) [compound 164]”, the “Wells (in vitro immunogenicity, positive wells)” value in assay [1] was “+ (<20% = +)”.

Take “23 (YTLSKTEFL; listed as Homo sapiens) [compound 23]”: the “Wells positive [%]” value in assay [1] is listed as “+ (<20% = +)”. The Peptide exchange result with HLA-A*02:01 is given as “++++ (>75% = ++++)”.

Consider “111 (LLDVTPKAV; listed as Homo sapiens) [compound 111]”, for which the “Wells positive [%]” value in assay [1] is given as “+++ (50%-69% = +++)”. The Peptide exchange result with HLA-A*02:01 is on record as “+++ (>50 = +++)”.

“204 (GVYDGEEHSV; listed as Homo sapiens) [compound 204]”: in assay [1], the “Wells (in vitro immunogenicity, positive wells)” value is listed as “+ (<20% = +)”.

In the case of “172 (LLYGHTVTV; listed as Homo sapiens) [compound 172]”, the “Wells (in vitro immunogenicity, positive wells)” value in assay [1] is “++ (20%-49% = ++)”.

As for “162 (TLLAAEFLKQV; listed as Homo sapiens) [compound 162]”, the “Wells (in vitro immunogenicity, positive wells)” value in assay [1] is listed as “+ (<20% = +)”.

Turning to “5 (IQDPVIFYV; listed as Homo sapiens) [compound 5]”, the “Wells positive [%]” value in assay [1] is given as “+++ (50%-69% = +++)”. Besides, the Peptide exchange entry in the assay with HLA-A*02:01 was “++++ (>75% = ++++)”.

As for “24 (SLLGGITVV; listed as Homo sapiens) [compound 24]”, the “Wells positive [%]” value in assay [1] was “++ (20%-49% = ++)”. Also, the Peptide exchange entry with HLA-A*02:01 is listed as “++++ (>75% = ++++)”.

Regarding “53 (ILVQVIPVV; listed as Homo sapiens) [compound 53]”, the “Wells positive [%]” value in assay [1] is given as “++ (20%-49% = ++)”. Also, the Peptide exchange entry with HLA-A*02:01 is “+++ (>50 = +++)”.

Take “126 (SLLRVGWSV; listed as Homo sapiens) [compound 126]”: in assay [1], the “Wells positive [%]” value is “++ (20%-49% = ++)”. For the same substance, in the assay with HLA-A*02:01, the Peptide exchange entry was “++++ (>75% = ++++)”.

Regarding “29 (ALSSPPPTV; listed as Homo sapiens) [compound 29]”, the “Wells positive [%]” value in assay [1] is listed as “+ (<20% = +)”. In addition, the Peptide exchange result with HLA-A*02:01 is “+++ (>50 = +++)”.

In the case of “57 (GLAHFVNEI; listed as Homo sapiens) [compound 57]”, the “Wells positive [%]” value in assay [1] is “+ (<20% = +)”. In the assay with HLA-A*02:01, the Peptide exchange entry is “++++ (>75% = ++++)”.

In the case of “159 (SLIEDLILL; listed as Homo sapiens) [compound 159]”, the “Wells (in vitro immunogenicity, positive wells)” value in assay [1] is listed as “+ (<20% = +)”.

As for “198 (NLIEKSIYL; listed as Homo sapiens) [compound 198]”, in assay [1], the “Wells (in vitro immunogenicity, positive wells)” value is given as “+ (<20% = +)”.

“30 (ILDISRSEV; listed as Homo sapiens) [compound 30]”: in assay [1], the “Wells positive [%]” value was “++++ (>=70% = ++++)”. In addition, the Peptide exchange entry with HLA-A*02:01 is reported as “+++ (>50 = +++)”.

Turning to “4 (SLDVVNLLV; listed as Homo sapiens) [compound 4]”, the “Wells positive [%]” value in assay [1] is “+ (<20% = +)”. The Peptide exchange entry with HLA-A*02:01 is reported as “++++ (>75% = ++++)”.

For “9 (SLVDARFQL; listed as Homo sapiens) [compound 9]”, the “Wells positive [%]” value in assay [1] was “+ (<20% = +)”. Moreover, the Peptide exchange result with HLA-A*02:01 was “++++ (>75% = ++++)”.

On to “60 (SLSDVRVIV; listed as Homo sapiens) [compound 60]”, for which the “Wells positive [%]” value in assay [1] is given as “+ (<20% = +)”. For the same substance, in the assay with HLA-A*02:01, the Peptide exchange entry was “++++ (>75% = ++++)”.

For the substance “176 (SMSGYDQVL; listed as Homo sapiens) [compound 176]”, in assay [1], the “Wells (in vitro immunogenicity, positive wells)” value is “+ (<20% = +)”.

Regarding “184 (LMTKEISSV; listed as Homo sapiens) [compound 184]”, the “Wells (in vitro immunogenicity, positive wells)” value in assay [1] was “+ (<20% = +)”.

Consider “178 (ALNEEAGRLLL; listed as Homo sapiens) [compound 178]”, for which, in assay [1], the “Wells (in vitro immunogenicity, positive wells)” value is recorded as “+ (<20% = +)”.

Regarding “155 (VLSSGLTAA; listed as Homo sapiens) [compound 155]”, in assay [1], the “Wells (in vitro immunogenicity, positive wells)” value is “+ (<20% = +)”.

“15 (YLAPENGYLMEA; listed as Homo sapiens) [compound 15]”: the “Wells positive [%]” value in assay [1] is listed as “+ (<20% = +)”. In addition, the Peptide exchange entry with HLA-A*02:01 is listed as “+++ (>50 = +++)”.

As for “173 (FVFSFPVSV; listed as Homo sapiens) [compound 173]”, the “Wells (in vitro immunogenicity, positive wells)” value in assay [1] is “++ (20%-49% = ++)”.

On to “160 (SLLGGNIRL; listed as Homo sapiens) [compound 160]”, for which, in assay [1], the “Wells (in vitro immunogenicity, positive wells)” value is reported as “++ (20%-49% = ++)”.

Take “75 (RVISSVISV; listed as Homo sapiens) [compound 75]”: the “Wells positive [%]” value in assay [1] was “++ (20%-49% = ++)”. In addition, the Peptide exchange result in the assay with HLA-A*02:01 is “+++ (>50 = +++)”.

As for “193 (ALVQDLAKA; listed as Homo sapiens) [compound 193]”, in assay [1], the “Wells (in vitro immunogenicity, positive wells)” value is “++ (20%-49% = ++)”.

As to “41 (FLDDGNQMLL; listed as Homo sapiens) [compound 41]”, the “Wells positive [%]” value in assay [1] is recorded as “+ (<20% = +)”. Further, the Peptide exchange entry with HLA-A*02:01 is reported as “++++ (>75% = ++++)”.

On to “192 (ALNPADITV; listed as Homo sapiens) [compound 192]”, for which the “Wells (in vitro immunogenicity, positive wells)” value in assay [1] is recorded as “++ (20%-49% = ++)”.

“177 (NLLQVLEKV; listed as Homo sapiens) [compound 177]”: the “Wells (in vitro immunogenicity, positive wells)” value in assay [1] was “+ (<20% = +)”.

Take “203 (FLIPYAIML; listed as Homo sapiens) [compound 203]”: the “Wells (in vitro immunogenicity, positive wells)” value in assay [1] is given as “+ (<20% = +)”.

With “186 (VLYPHEPTAV; listed as Homo sapiens) [compound 186]”, the “Wells (in vitro immunogenicity, positive wells)” value in assay [1] is recorded as “+ (<20% = +)”.

As for “170 (GLIEIISNA; listed as Homo sapiens) [compound 170]”, in assay [1], the “Wells (in vitro immunogenicity, positive wells)” value is “+ (<20% = +)”.

As for “168 (LTAPPEALLMV; listed as Homo sapiens) [compound 168]”, in assay [1], the “Wells (in vitro immunogenicity, positive wells)” value was “+ (<20% = +)”.

Consider “156 (KLVEFDFLGA; listed as Homo sapiens) [compound 156]”, for which the “Wells (in vitro immunogenicity, positive wells)” value in assay [1] is given as “+ (<20% = +)”.

As to “167 (SLWGGDVVL; listed as Homo sapiens) [compound 167]”, the “Wells (in vitro immunogenicity, positive wells)” value in assay [1] was “++ (20%-49% = ++)”.

In the case of “189 (ALLRTVVSV; listed as Homo sapiens) [compound 189]”, the “Wells (in vitro immunogenicity, positive wells)” value in assay [1] is given as “+ (<20% = +)”.

As to “200 (YLNVQVKEL; listed as Homo sapiens) [compound 200]”, the “Wells (in vitro immunogenicity, positive wells)” value in assay [1] is reported as “+ (<20% = +)”.

“182 (YLAPFLRNV; listed as Homo sapiens) [compound 182]”: the “Wells (in vitro immunogenicity, positive wells)” value in assay [1] is “++ (20%-49% = ++)”.
